Experimental data: patent US20130090333A1, “BENZOXAZINE DERIVATIVES AS CRAC MODULATORS” (Hoffmann-La Roche Inc., priority 2011, published 2013)
pIC50: −log10 of the molar value.

What was measured:
Assay type in all cases: cell-based
[1] = tested on: PBMC from healthy donors; assay: [3H]Thymidine Incorporation (MLR); conditions: mixed PBMC responder/stimulator 1:1, 4 days
Protocol: [3H]Thymidine Incorporation (MLR)
Freshly isolated PBMC from healthy donors were either used as responders, where the cells were pre-treated with various concentrations of inhibitors (as indicated in the figure legends), or stimulators where the cells were pre-treated with 0.05 mg/ml Mitomycin C for 20 min. Stimulator cells were washed twice with RPMI 1640 and mixed with responder PBMCs at a 1:1 ratio, totaling 2×10^5 cells/well in quadruplicate in a 96-well U-bottom tissue culture plates (Falcon). Cells were cultured in complete RPMI 1640 (supplemented with 10% FBS, 1 mM sodium pyruvate, and 100 IU/ml penicillin-streptomycin, 0.01M HEPES and 55 μM β-ME [Invitrogen]) for 4 days at 37° C. in 5% CO2. Cultures were pulsed with 0.5 μCi [3H]-thymidine (PerkinElmer) during the last 6 hrs of culture. Cells were harvested on filter plates using a 96-well plate harvester (PerkinElmer), and the incorporation of [3H]-thymidine was measured as cpm in a Topcount Microplate scintillation counter (PerkinElmer). Stimulator cells alone or responder cells alone were set up in parallel as controls.

[2] = tested on: T cell IL-2 production in human whole blood; assay: Human Whole Blood Assay (inhibition of T cell IL-2 production); conditions: T-cell, 10 μM Thapsigargin overnight, plasma IL-2 by AlphaLISA, read-out: HWB
Protocol: Inhibition of T cell IL-2 production CRAC compounds were tested in human whole blood from normal donors. 200 μl of human whole blood was aliquoted into each well of a round bottom 96 well plate. Concentration-response curves were generated for test compounds and CsA (as controls) by performing serial dilutions of the compounds and incubating each concentration in a single well for 30 min (experiment was performed in triplicate). Following incubation, the blood was stimulated with 10 μM Thapsigargin (SIGMA) overnight at 37° C. IL-2 concentrations in the plasma were determined by AlphaLISA IL-2 assay (Perkin Elmer). Data analysis was performed using GraphPad PRISMS.

[3] = tested on: IL-2 production in Jurkat cell (ATCC); assay: Jurkat IL-2 Production Assay; conditions: Homo sapiens, Jurkat cells, 18-20 h incubation, serum/stimulant variant (1% FBS/PHA or 30% FBS/PMA+ionomycin) not given
Protocol: Jurkat IL-2 Production Assay Cell: Jurkat cell (ATCC) was grown in RPMI 1640 with 10% FBS and 1% penicillin/streptomycin. The cell density was kept at 1.2˜1.8×10^6/mL in culture flask before seeding into culture plate, and the cell density in the plate was 0.5×10^6/2004/well. Culture Media: RPMI 1640 with 1% FBS or 30% FBS for high serum assay. Test Compound: Serial dilution was done in 100% DMSO, and intermediate dilution was done with RPMI 1640 medium with 1% FBS. The DMSO final concentration in culture well was 0.25%. Stimulant: PHA (Sigma#L9017-10MG) was used for the assay with 1% FBS in culture medium, and added after 10 minutes exposure of cell to compound/DMSO. The PHA final concentration in culture well was 5 μg/mL. PMA (Sigma# P-8139 5MG)/Ionomycin (Sigma# I0634-5MG) was used for the assay with 30% FBS in culture medium, and added at same time point as the 1% FBS culture assay. The final concentration of PMA was 50 ng/mL, and Ionomycin final concentration was 500 ng/mL. Incubation: At 37° C. with 5% CO2 and 95% humidity for 18 h˜20 h. IC50: IC50 was calculated with the data analysis software XLfit4, General Pharmacology model 251.

pIC50 [2] | pIC50 [3] | Structure (SMILES) | pIC50 [1]
6.29 | 7.70 | CCn1nc(C(F)(F)F)cc1-c1ccc2c(c1)OCC(c1c(F)cccc1F)N2 (stereo not drawn) [Example 6, 3-(2,6-Difluoro-phenyl)-7-(2-ethyl-5-trifluoromethyl-2H-pyrazol-3-yl)-3,4-dihydro-2H-benzo[1,4]oxazine] | 6.96
6.06 | 7.70 | CCc1sc(-c2cnccn2)nc1-c1ccc2c(c1)OCC(c1c(F)cccc1F)N2 (stereo not drawn) [Example 16, 3-(2,6-difluorophenyl)-7-(5-ethyl-2-(pyrazin-2-yl)thiazol-4-yl)-3,4-dihydro-2H-benzo[b][1,4]oxazine] | 6.74
6.44 | 7.52 | CCc1sc(-c2cc(C)on2)nc1-c1ccc2c(c1)OCC(c1c(F)cccc1F)N2 (stereo not drawn) [Example 20, 3-(2,6-difluorophenyl)-7-(5-ethyl-2-(5-methylisoxazol-3-yl)thiazol-4-yl)-3,4-dihydro-2H-benzo[b][1,4]oxazine] | 6.37

The remaining lines, values behind:

Structure (SMILES) | pIC50 [2] | pIC50 [3] | pIC50 [1]
CCn1nc(-c2cccnc2)cc1-c1ccc2c(c1)OCC(c1c(F)cccc1F)N2 (stereo not drawn) [Example 7, 3-(2,6-Difluoro-phenyl)-7-(2-ethyl-5-pyridin-3-yl-2H-pyrazol-3-yl)-3,4-dihydro-2H benzo[1,4]oxazine] | 6.49 | 7.15 | 6.48
Cc1sc(-c2cccnc2)nc1-c1ccc2c(c1)OCC(c1c(F)cccc1F)N2 (stereo not drawn) [Example 12, 3-(2,6-Difluoro-phenyl)-7-(5-methyl-2-pyridin-3-yl-thiazol-4-yl)-3,4-dihydro-2H-benzo[1,4]oxazine] | 6.37 | 7.52 | 6.72
CCc1sc(-c2cccnc2)nc1-c1ccc2c(c1)OCC(c1c(F)cccc1F)N2 (stereo not drawn) [Example 14, 3-(2,6-Difluoro-phenyl)-7-(5-ethyl-2-pyridin-3-yl-thiazol-4-yl)-3,4-dihydro-2H-benzo[1,4]oxazine] | 6.28 | 7.52 | 7.00
CCc1sc(-c2ccncc2)nc1-c1ccc2c(c1)OCC(c1c(F)cccc1F)N2 (stereo not drawn) [Example 17, 3-(2,6-Difluoro-phenyl)-7-(5-ethyl-2-pyridin-4-yl-thiazol-4-yl)-3,4-dihydro-2H-benzo[1,4]oxazine] | 6.49 | 7.70 | 6.36
